# Activity calls are given as the source filed them. No cut-off for these calls is given here.
# What was measured:
# HT-29 = experiment: Antiproliferative activity against human HT-29 cells after 2 days by MTT assay; format: functional, cell-based; settings: HT-29, 48 h
# A549 [1] = experiment: Cell cycle arrest in human A549 cells assessed as accumulation at G0/G1 phase at 45 nM after 20 hrs by propidium iodide staining based flow cytometry (reference value: 66 +/- 1%); format: functional
# HEK293 = experiment: Antiproliferative activity against HEK293 cells after 2 days by MTT assay; format: cell-based; settings: Homo sapiens, HEK293, 48 h
# MDA-MB-231 = experiment: Antiproliferative activity against human MDA-MB-231 cells after 3 days by coulter counting method; format: functional, cell-based; settings: MDA-MB-231, 72 h
# A549 [2] = experiment: Cell cycle arrest in human A549 cells assessed as accumulation at G2/M phase at 45 nM after 20 hrs by propidium iodide staining based flow cytometry (reference value: 11 +/- 1%); format: functional
# Bos taurus = species: Bos taurus; experiment: Inhibition of calf brain tubulin polymerization after 60 mins by turbidimetric method
# HMEC-1 = experiment: Antiproliferative activity against HMEC1 cells after 2 days by MTT assay; format: functional, cell-based; settings: Homo sapiens, HMEC-1, 48 h
# MCF7 = experiment: Antiproliferative activity against human MCF7 cells after 2 days by MTT assay; format: functional, cell-based; settings: MCF7, 48 h
# A549 [3] = experiment: Cell cycle arrest in human A549 cells assessed as accumulation at sub-G0 phase at 45 nM after 20 hrs by propidium iodide staining based flow cytometry (reference value: 6.6 +/- 0.1%); format: functional
# HL-60 = experiment: Antiproliferative activity against human HL60 cells after 2 days by MTT assay; format: functional, cell-based; settings: HL-60, 48 h
# A549 [4] = experiment: Antiproliferative activity against human A549 cells after 2 days by MTT assay; format: functional, cell-based; settings: A549, 48 h
# A549 [5] = experiment: Induction of apoptosis in human A549 cells at 10 nM after 24 hrs by Annexin V-FITC/propidium iodide staining based flow cytometry (reference value: 28%); format: functional
# A549 [6] = experiment: Cell cycle arrest in human A549 cells assessed as accumulation at S phase at 45 nM after 20 hrs by propidium iodide staining based flow cytometry (reference value: 16 +/- 1%); format: functional
# A549 [7] = experiment: Induction of apoptosis in human A549 cells after 24 hrs by Annexin V-FITC/propidium iodide staining based flow cytometry; format: functional, cell-based
# A549 [8] = experiment: Induction of apoptosis in human A549 cells at 100 nM after 24 hrs by Annexin V-FITC/propidium iodide staining based flow cytometry (reference value: 28%); format: functional
# HeLa = experiment: Antiproliferative activity against human HeLa cells after 2 days by MTT assay; format: functional, cell-based; settings: 48 h
# A549 [9] = experiment: Cell cycle arrest in human A549 cells assessed as accumulation at G0/G1 phase at 70 nM after 20 hrs by propidium iodide staining based flow cytometry (reference value: 66 +/- 1%); format: functional
# A549 [10] = experiment: Cell cycle arrest in human A549 cells assessed as accumulation at S phase at 70 nM after 20 hrs by propidium iodide staining based flow cytometry (reference value: 16 +/- 1%); format: functional
# A549 [11] = experiment: Cell cycle arrest in human A549 cells assessed as accumulation at sub-G0 phase at 70 nM after 20 hrs by propidium iodide staining based flow cytometry (reference value: 6.6 +/- 0.1%); format: functional
# A549 [12] = experiment: Cell cycle arrest in human A549 cells assessed as accumulation at G2/M phase at 70 nM after 20 hrs by propidium iodide staining based flow cytometry (reference value: 11 +/- 1%); format: functional
Structure (SMILES),IC50 (HT-29) [nM],Activity (A549 [1]) [%],IC50 (HEK293) [nM],IC50 (MDA-MB-231) [nM],Activity (A549 [2]) [%],inhibition (Bos taurus),IC50 (HMEC-1) [nM],IC50 (MCF7) [nM],Activity (A549 [3]) [%],IC50 (HL-60) [nM],IC50 (A549 [4]) [nM],Activity (A549 [5]) [%],Activity (A549 [6]) [%],Activity (A549 [7]),Activity (A549 [8]) [%],IC50 (HeLa) [nM],Activity (A549 [9]) [%],Activity (A549 [10]) [%],Activity (A549 [11]) [%],Activity (A549 [12]) [%]
COc1ccc(/C=C\c2cc(OC)c(OC)c(OC)c2)cc1NC(=O)Oc1ccc(C)c(Cl)c1,23,21,7,13.7,36,Active,6,6.1,29,1.8,90,23,14,Dose-dependent effect,46,3.7,,,,
COc1ccc(/C=C\c2cc(OC)c(OC)c(OC)c2)cc1NC(=O)Oc1cccc(Cl)c1C,47,,14,14,,,20,39,,70,140,,,,,23,24,18,20,39

# — ChEMBL document CHEMBL4145540 (Eur J Med Chem, 2018)
